Reference: patent US7772226B2, “Condensed imidazole derivatives” (Eisai R&D Management Co., Ltd., priority 2002, dated 2010)
pIC50: −log10 of the molar value.

Columns and labels:
male C57BL/6N mice = experiment: Acceptable Timing of Administration in In Vivo Test; details: oral; given simultaneously with vs one hour before glucose loading (2 g/kg); improvement factor for glucose tolerance compared
Protocol: Acceptable Timing of Administration in In Vivo Test
The respective tests described below were carried out in combination with the in vivo test (administration before 0.5 hour) as described in Assay Example 2:
1. A test compound is administered simultaneously with glucose loading (2 g/kg) (the test compound is suspended in an aqueous solution of 0.5% methyl cellulose; the solution is combined with an equal volume of a glucose solution; and the mixture is administered orally at a dose of 10 ml/kg);
2. A test compound is administered one hour before glucose loading (2 g/kg) (the test compound suspended in an aqueous solution of 0.5% methyl cellulose is administered orally one hour before the oral administration of the glucose solution; each is given orally at a dose of 10 ml/kg).
The improvement factor for glucose tolerance is estimated in each test.

male Wistar rats = experiment: Effect of a Test Compound on the Blood Glucose Level of Fasted Male Wistar Rats; type: in vivo; details: oral dose of 10-30 (mg/kg), 0.5, 1 and 3 hours after administration, compared with control group treated with the medium alone
Protocol: Purpose: Effect of a Test Compound on the Blood Glucose Level of Fasted Male Wistar Rats
Animal: male Wistar rats (purchased from Charles River Japan, Inc.)
A test compound was suspended in 0.5% methyl cellulose (MC) solution and administered orally at a dose of 5 mL/kg. The control group was treated with a 0.5% MC solution. The solution was administered orally at a dose of 5 mL/kg.
Immediately before administering a test compound or 0.5% MC solution, and 0.5, 1, and 3 hours after the administration, without anesthetic the caudal vein was lightly cut with a razor blade to let the blood out. 10 μL of blood was collected and combined with 140 μL of 0.6 M perchloric acid solution. The sample was centrifuged at 3000 g at 4° C. for 10 minutes and the resultant supernatant was assayed with the Glucose CII TEST WAKO (Wako Pure Chemical Industries).

[1] = molecular target: T1, Porcine kidney-derived DPP-IV (Sus scrofa, UniProt P22411); experiment: DPPIV-inhibiting Activity Assay; type: biochemical; details: substrate Gly-Pro-p-nitroanilide 0.33 mM, absorbance at 405 nm
T1 construct: Porcine kidney-derived DPP-IV was dissolved in a reaction buffer; from tissue; host or cells: porcine kidney
Protocol: DPPIV-inhibiting Activity Assay
Porcine kidney-derived DPP-IV was dissolved in a reaction buffer (50 mM Tris-HCl (pH 7.4)/0.1% BSA) at a concentration of […]. After 110 μl of this solution had been combined with 15 μl of an agent, the mixture was incubated at room temperature for 20 minutes. 25 μl of 2 mM Gly-Pro-p-nitroanilide was added (to a final concentration of 0.33 mM) to the solution to initiate the enzyme reaction. The reaction time was 20 minutes. 25 μl of 1N phosphoric acid solution was added to the reaction solution to quench the reaction.

T1 sequence (P22411 whole entry): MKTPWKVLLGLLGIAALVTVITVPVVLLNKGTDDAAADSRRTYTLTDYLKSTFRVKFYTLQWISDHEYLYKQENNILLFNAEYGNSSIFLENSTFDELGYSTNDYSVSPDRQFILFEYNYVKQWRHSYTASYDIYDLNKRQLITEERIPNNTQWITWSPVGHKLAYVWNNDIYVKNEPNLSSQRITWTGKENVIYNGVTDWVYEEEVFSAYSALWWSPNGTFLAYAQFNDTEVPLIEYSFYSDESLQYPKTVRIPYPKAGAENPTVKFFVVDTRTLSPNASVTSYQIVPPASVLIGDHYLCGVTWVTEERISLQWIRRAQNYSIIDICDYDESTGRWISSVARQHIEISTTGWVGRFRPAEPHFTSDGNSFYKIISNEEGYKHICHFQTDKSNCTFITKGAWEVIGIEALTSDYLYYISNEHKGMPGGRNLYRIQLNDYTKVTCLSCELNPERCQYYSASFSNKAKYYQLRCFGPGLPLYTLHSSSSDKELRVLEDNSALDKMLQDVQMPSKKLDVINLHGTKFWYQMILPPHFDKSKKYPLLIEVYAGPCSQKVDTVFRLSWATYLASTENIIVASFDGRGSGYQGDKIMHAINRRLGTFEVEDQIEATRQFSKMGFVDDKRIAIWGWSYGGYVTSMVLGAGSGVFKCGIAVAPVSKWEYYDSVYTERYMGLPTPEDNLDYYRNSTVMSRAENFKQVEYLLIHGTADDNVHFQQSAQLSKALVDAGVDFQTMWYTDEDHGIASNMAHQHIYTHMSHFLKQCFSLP

Molecule: CC#CCn1c(N2CCNCC2)nc2cnn(Cc3ccccc3C#N)c(=O)c21.O=C(O)C(F)(F)F [Example 267, 2-[3-(2-Butynyl)-4-oxo-2-(piperazin-1-yl)-3,4-dihydroimidazo[4,5-d]pyridazin-5-ylmethyl]benzonitrile trifluoroacetate]
- range of acceptable timing of administration (male C57BL/6N mice): sufficiently wide ranges of acceptable timing of administration
- change in the blood glucose level (male Wistar rats): no significant change

Molecule: CC#CCn1c(N2CCNCC2)nc2nc(C#N)n(C)c(=O)c21.O=C(O)C(F)(F)F [Example 82, 7-(2-Butynyl)-2-cyano-1-methyl-8-(piperazin-1-yl)-1,7-dihydropurin-6-one trifluoroacetate]
- range of acceptable timing of administration (male C57BL/6N mice): sufficiently wide ranges of acceptable timing of administration
- change in the blood glucose level (male Wistar rats): no significant change

Molecule: Methyl 2-[7-(2-butynyl)-1-methyl-6-oxo-8-(piperazin-1-yl)-6,7-dihydro-1H-purin-2-yloxy]phenylacetate trifluoroacetate [Example 4]
- pIC50 [1]: 6.68

Molecule: CC#CCn1c(N2CCNCC2)nc2cnn(C)c(=O)c21 [Example 119, 3-(2-Butynyl)-5-methyl-2-(piperazin-1-yl)-3,5-dihydroimidazo[4,5-d]pyridazin-4-one]
- range of acceptable timing of administration (male C57BL/6N mice): sufficiently wide ranges of acceptable timing of administration
- change in the blood glucose level (male Wistar rats): no significant change

Molecule: CC#CCn1c(N2CCCC(N)C2)nc2cnn(C)c(=O)c21.O=C(O)C(F)(F)F (stereo not shown) [Example 120, 2-(3-Aminopiperidin-1-yl)-3-(2-butynyl)-5-methyl-3,5-dihydroimidazo[4,5-d]pyridazin-4-one trifluoroacetate]
- range of acceptable timing of administration (male C57BL/6N mice): sufficiently wide ranges of acceptable timing of administration
- change in the blood glucose level (male Wistar rats): no significant change

Molecule: CC#CCn1c(N2CCNCC2)nc2nc(C#N)n(Cc3ccccc3C#N)c(=O)c21.Cl [Example 229, 7-(2-Butynyl)-1-(2-cyanobenzyl)-6-oxo-8-(piperazin-1-yl)-6,7-dihydro-1H-purine-2-carbonitrile hydrochloride]
- range of acceptable timing of administration (male C57BL/6N mice): sufficiently wide ranges of acceptable timing of administration
- change in the blood glucose level (male Wistar rats): no significant change

Molecule: CC#CCn1c(N2CCNCC2)nc2nc(Oc3ccccc3C(N)=O)n(C)c(=O)c21 [Example 122, 2-[7-(2-Butynyl)-1-methyl-6-oxo-8-(piperazin-1-yl)-6,7-dihydro-1H-purin-2-yloxy]benzamide]
- range of acceptable timing of administration (male C57BL/6N mice): sufficiently wide ranges of acceptable timing of administration
- change in the blood glucose level (male Wistar rats): no significant change
